Assay results: paper PMC8606745 (Frontiers in Microbiology, 2021)
Several values for one entry are separate records, joined by “and”; a condition that tells them apart may be missing. Equal entries are not always repeated. Where two headings read alike, the source gives them in different places. Square brackets hold non-standard residues; d marks the D form. Peptide text beside a SMILES is read from it.

What was measured:
[1] = test system: X. fastidiosa subsp. fastidiosa IVIA 5387.2; format: cell-based, Xylella fastidiosa
[2] = test system: X. fastidiosa subsp. fastidiosa IVIA 5387.2; conditions: for Bimax (maximum biofilm inhibition): 50 µM
[3] = test system: X. fastidiosa subsp. fastidiosa IVIA 5387.2
[4] = test system: X. fastidiosa subsp. pauca DD1; format: cell-based, Xylella fastidiosa; conditions: 50 μM; strain DD1; OD595 crystal violet, 28°C, 5 days; three replicates of 10 wells ± confidence interval; listed as NAC
[5] = test system: X. fastidiosa subsp. multiplex CFBP 8173; format: cell-based, Xylella fastidiosa; conditions: 50 μM; strain CFBP 8173; OD595 crystal violet, 28°C, 5 days; three replicates of 10 wells ± confidence interval; listed as NAC
[6] = test system: X. fastidiosa subsp. fastidiosa IVIA 5770; format: cell-based, Xylella fastidiosa; conditions: 50 μM; strain IVIA 5770; OD595 crystal violet, 28°C, 5 days; three replicates of 10 wells ± confidence interval; listed as NAC
[7] = test system: X. fastidiosa subsp. fastidiosa Temecula (ATCC 700964); format: cell-based, Xylella fastidiosa; conditions: 50 μM; strain Temecula; OD595 crystal violet, 28°C, 5 days; three replicates of 10 wells ± confidence interval; listed as NAC
[8] = test system: X. fastidiosa subsp. multiplex IVIA 5901.2; format: cell-based, Xylella fastidiosa; conditions: 50 μM; strain IVIA 5901.2; OD595 crystal violet, 28°C, 5 days; three replicates of 10 wells ± confidence interval; listed as NAC
Gram-negative bacteria [9] = conditions: cited from earlier work
Gram-negative bacteria [10] = conditions: cited from earlier work; remark: listed apart in the source
[11] = test system: several X. fastidiosa strains; conditions: 12.5 μM; cited from earlier work

Row | Molecule | Biofilm formation Level (antibiofilm activity) [1] | Biofilm formation Ratio (treatment/NTC) [1] | Planktonic cells Ratio (treatment/NTC) [1] | ED50 (median effective dose, biofilm inhibition) [2] [µM] | Bimax (maximum biofilm inhibition) [2] [%] | Bactericidal activity: Reduction in viability (Log N0/N) [3] [Log N0/N] | Biofilm formation Level (antibiofilm activity) ([1]; 50 µM) | Hemolysis (horse erythrocytes; 150 µM) [%] | Hemolysis (horse erythrocytes; 250 µM) [%] | Hemolysis (horse erythrocytes; 375 µM) [%] | other results
1 | CC[C@H](C)[C@H](N)C(=O)N[C@@H](CC(C)C)C(=O)N1CCC[C@H]1C(=O)N[C@H](Cc1ccccc1)C(=O)N[C@@H](CCCCN)C(=O)N[C@H](Cc1ccccc1)C(=O)N1CCC[C@H]1C(=O)N[C@H](Cc1ccccc1)C(=O)N[C@H](Cc1ccccc1)C(=O)N1CCC[C@H]1C(=O)N[C@H](Cc1ccccc1)C(=O)N[C@@H](CCCNC(=N)N)C(=O)N[C@@H](CCCNC(=N)N)C(N)=O [BP525] (H-ILP[dF]K[dF]P[dF][dF]P[dF]RR-NH2) | High (key: High: high antibiofilm activity (ratio of biofilm formation from 0.01 to 0.2); Moderate: moderate activity (ratio from 0.29 to 0.47); Low: low activity (ratio from 0.72 to 0.77)) | 0.18 ± 0.01 | 1.83 ± 0.12 | 4.4 ± 1.3 | 85.8 | 0.74 ± 0.06 |  |  |  |  | 
2 | CC(=O)N[C@@H](CS)C(=O)O [N-Acetyl-L-cysteine, N-acetyl-L-cysteine] |  |  |  |  |  |  | Low (low activity (ratio from 0.72 to 0.77)) | 0.5 ± 0.9 | 0.7 ± 1.1 | 1 ± 2 | Biofilm formation (Ratio T/NTC) [4]: 0.42 and 0.42 ± 0.05 a; Planktonic cells Ratio (treatment/NTC) ([1]; 50 µM, OD600 treated / non-treated, PD3, 96-well, 28°C, 5 days, 120 rpm, three replicates of 10 wells ± confidence interval (α=0.05)): 1.71 ± 0.03; Biofilm formation Ratio (treatment/NTC) ([1]; 50 µM, crystal violet OD595 treated / non-treated, PD3, 96-well, 28°C, 5 days, 120 rpm, three replicates of 10 wells ± confidence interval (α=0.05)): 0.72 ± 0.01; Biofilm formation (Ratio T/NTC) ([1]; 50 μM, strain IVIA 5387.2, OD595 crystal violet, 28°C, 5 days, three replicates of 10 wells ± confidence interval, listed as NAC): 0.72 and 0.72 ± 0.01 b; Biofilm formation (Ratio T/NTC) [5]: 0.99; Biofilm formation (Ratio T/NTC) [6]: 0.97; Biofilm formation (Ratio T/NTC) [7]: 0.94 ± 0.02 c; Biofilm formation (Ratio T/NTC) [8]: 1.00 ± 0.04 days; Bactericidal activity: Level ([3]; 50 µM, class by Duncan's test groups): Very low (very low activity with less than 0.3 log); Bactericidal activity: Reduction in viability (Log N0/N) ([3]; 50 µM, contact test 3 h at room temperature in SCP buffer, v-qPCR with PMAxx, N0 = 10^7 CFU/mL non-treated control, mean of three replicates ± confidence interval (α=0.05)): 0.12 ± 0.01 Log N0/N
3 | CC[C@H](C)[C@H](NC(=O)[C@H](CCCNC(=N)N)NC(=O)[C@H](Cc1ccccc1)NC(=O)[C@H](CCCNC(=N)N)NC(=O)[C@@H](N)CCCCN)C(=O)N[C@@H](CCCNC(=N)N)C(=O)N[C@H](C(=O)N[C@@H](CCCNC(=N)N)C(=O)N[C@H](C(N)=O)C(C)C)C(C)C [Peptide 1037] (H-KRFRIRVRV-NH2) | High (key: High: high antibiofilm activity (ratio of biofilm formation from 0.01 to 0.2); Moderate: moderate activity (ratio from 0.29 to 0.47); Low: low activity (ratio from 0.72 to 0.77)) | 0.15 ± 0.00 | 1.67 ± 0.05 | 4.2 ± 2.4 |  | 0.84 ± 0.09 |  |  |  |  | 
4 | CC[C@H](C)[C@H](NC(=O)[C@H](CCCCN)NC(=O)[C@H](CCCCN)NC(=O)[C@H](CC(C)C)NC(=O)[C@@H](NC(=O)[C@H](CCCNC(=N)N)NC(=O)[C@@H](NC(=O)[C@H](CCCNC(=N)N)NC(=O)[C@@H](NC(=O)[C@H](CCCNC(=N)N)NC(=O)[C@H](Cc1ccccc1)NC(=O)[C@H](CC(C)C)NC(=O)[C@H](CCCNC(=N)N)NC(=O)[C@H](CCCNC(=N)N)NC(=O)[C@H](Cc1ccccc1)NC(=O)[C@@H](N)CCCNC(=N)N)[C@@H](C)CC)C(C)C)C(C)C)C(N)=O [R-FV7-I16] (H-RFRRLFRIRVRVLKKI-NH2; N-terminus assumed) |  |  |  | 6.3 ± 3.7 | 90.6 |  | High (key: High: high antibiofilm activity (ratio of biofilm formation from 0.01 to 0.2); Moderate: moderate activity (ratio from 0.29 to 0.47); Low: low activity (ratio from 0.72 to 0.77)) | 6.3 ± 0.3 | 8.0 ± 1.3 | 9.7 ± 0.6 | Described activity: Antibiofilm (Gram-negative bacteria [9]): Ec, Pa; Biofilm formation Ratio (treatment/NTC) ([1]; 50 µM): 0.10 ± 0.01; Planktonic cells Ratio (treatment/NTC) ([1]; 50 µM): 1.70 ± 0.12; Described activity: Antibacterial (Gram-negative bacteria [10]): Ec, Pa, Se; Bactericidal activity: Reduction in viability (Log N0/N) ([3]; 50 µM): 0.39 ± 0.01 Log N0/N
5 | BP178 |  |  |  |  |  |  |  |  |  |  | reduction in viability [11]: approximately 3.6 log
